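Cells were grown in 96-well plates and exposed to each compound for 48 hours at five concentrations; endpoints were interpolated linearly between bracketing concentrations, or set to the highest concentration if not reached. GI50: concentration for 50% inhibition of growth.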 The source made the active and inactive calls. No stated cut-off is given here; in the data, active = GI50 up to about 1.1 µM and inactive = higher.
Legend:
Test in all cases: NCI anticancer screen, dose series, 48 h
IGROV-1 = tested on: IGROV-1
RPMI-8226 = tested on: RPMI-8226
NCI/ADR-RES = tested on: NCI/ADR-RES
OVCAR-3 = tested on: OVCAR-3
SK-MEL-2 = tested on: SK-MEL-2
SF-539 = tested on: SF-539
CCRF-CEM = tested on: CCRF-CEM
Hs-578T = tested on: Hs-578T
TK-10 = tested on: TK-10
MDA-MB-435 = tested on: MDA-MB-435
OVCAR-8 = tested on: OVCAR-8
LOX IMVI = tested on: LOX IMVI
HT-29 = tested on: HT-29
HCT-116 = tested on: HCT-116
SF-268 = tested on: SF-268
K562 = tested on: K562
SN12C = tested on: SN12C
OVCAR-4 = tested on: OVCAR-4
U-251 = tested on: U-251
UO-31 = tested on: UO-31
M14 = tested on: M14
SK-MEL-28 = tested on: SK-MEL-28
MDA-MB-231 = tested on: MDA-MB-231
SF-295 = tested on: SF-295
SK-MEL-5 = tested on: SK-MEL-5
T47D = tested on: T47D
NCI-H23 = tested on: NCI-H23
A498 = tested on: A498
COLO 205 = tested on: COLO 205
SK-OV-3 = tested on: SK-OV-3
A549 = tested on: A549
ACHN = tested on: ACHN
MDA-N = tested on: MDA-N
DU-145 = tested on: DU-145
RXF 393 = tested on: RXF 393
BT-549 = tested on: BT-549
HCT-15 = tested on: HCT-15
UACC-257 = tested on: UACC-257
Malme-3M = tested on: Malme-3M
786-0 = tested on: 786-0
CAKI-1 = tested on: CAKI-1
NCI-H226 = tested on: NCI-H226
PC-3 = tested on: PC-3
HOP-62 = tested on: HOP-62
KM12 = tested on: KM12
SR = tested on: SR
UACC-62 = tested on: UACC-62
NCI-H460 = tested on: NCI-H460
SNB-75 = tested on: SNB-75
MCF7 = tested on: MCF7
MOLT-4 = tested on: MOLT-4
SW-620 = tested on: SW-620
EKVX = tested on: EKVX
SNB-19 = tested on: SNB-19
OVCAR-5 = tested on: OVCAR-5
HOP-92 = tested on: HOP-92
NCI-H522 = tested on: NCI-H522
HL-60 = tested on: HL-60

Measured: GI50

Cc1cccc(Cn2c3c(c4cc(O)ccc42)C(=O)c2ccccc2C3=O)c1
54.7 µM: HCT-15
inactive: IGROV-1 5.13 µM | RPMI-8226 5.92 µM | NCI/ADR-RES 6.84 µM | OVCAR-3 > 31.6 µM | SK-MEL-2 > 91.2 µM | SF-539 5.7 µM | CCRF-CEM 28.1 µM | Hs-578T 24.4 µM | TK-10 15.5 µM | MDA-MB-435 > 80.9 µM | OVCAR-8 5.57 µM | LOX IMVI 12.6 µM | HT-29 > 58.5 µM | HCT-116 3.05 µM | SF-268 36.6 µM | K562 > 100 µM | SN12C > 61 µM | OVCAR-4 1.88 µM | U-251 8.59 µM | UO-31 > 54.2 µM | M14 > 100 µM | SK-MEL-28 > 39.6 µM | MDA-MB-231 6.35 µM | SF-295 3.89 µM | SK-MEL-5 18.3 µM | T47D > 100 µM | NCI-H23 15.4 µM | A498 > 90.8 µM | COLO 205 > 78.2 µM | SK-OV-3 3.44 µM | A549 11.3 µM | ACHN 13.3 µM | MDA-N 68.4 µM | DU-145 > 100 µM | RXF 393 5.6 µM | BT-549 24.3 µM | UACC-257 > 100 µM | Malme-3M 19.1 µM | 786-0 3.86 µM | CAKI-1 > 26.5 µM | NCI-H226 15.7 µM | PC-3 6.27 µM | HOP-62 4.58 µM | KM12 41.2 µM | SR 14.2 µM | UACC-62 11.1 µM | NCI-H460 25.6 µM | SNB-75 1.97 µM | MCF7 23.2 µM | MOLT-4 > 83.6 µM | SW-620 31 µM | EKVX 3.95 µM | SNB-19 28 µM

O=C1C2SC34c5c2c2ccccc2n5CCC3CCCN14 (centres undefined)
inactive: IGROV-1 80.7 µM | RPMI-8226 > 100 µM | NCI/ADR-RES > 100 µM | OVCAR-3 65 µM | SK-MEL-2 74.6 µM | OVCAR-5 > 100 µM | SF-539 > 100 µM | Hs-578T 38.1 µM | TK-10 25.9 µM | MDA-MB-435 89.1 µM | OVCAR-8 83.8 µM | LOX IMVI > 100 µM | HT-29 > 100 µM | HCT-116 > 100 µM | SF-268 39.4 µM | K562 > 100 µM | SN12C > 100 µM | HOP-92 34.9 µM | OVCAR-4 37.5 µM | U-251 33.9 µM | UO-31 > 100 µM | M14 > 100 µM | SK-MEL-28 > 100 µM | MDA-MB-231 39.6 µM | SF-295 55.2 µM | SK-MEL-5 > 100 µM | T47D 91.2 µM | NCI-H23 > 100 µM | A498 > 100 µM | COLO 205 > 100 µM | SK-OV-3 > 100 µM | A549 > 100 µM | ACHN > 100 µM | MDA-N > 100 µM | DU-145 > 100 µM | RXF 393 98.4 µM | BT-549 > 100 µM | UACC-257 15 µM | Malme-3M > 100 µM | 786-0 27.5 µM | CAKI-1 48.4 µM | NCI-H226 > 100 µM | NCI-H522 56.8 µM | PC-3 54.8 µM | HOP-62 31.8 µM | KM12 > 100 µM | SR > 100 µM | HL-60 > 100 µM | UACC-62 > 100 µM | MCF7 > 100 µM | MOLT-4 > 100 µM | SW-620 > 100 µM | EKVX > 100 µM | SNB-19 62.4 µM
> 100 µM: HCT-15

COc1nc(C#CC2CCCCC2)nc(OC)n1
active: HCT-116 0.401 µM
inactive: IGROV-1 3.79 µM | RPMI-8226 1.51 µM | NCI/ADR-RES 1.64 µM | OVCAR-3 3.22 µM | SK-MEL-2 3.81 µM | OVCAR-5 2.51 µM | SF-539 2.45 µM | CCRF-CEM 1.12 µM | Hs-578T 3.58 µM | MDA-MB-435 2.08 µM | OVCAR-8 1.61 µM | LOX IMVI 1.51 µM | HT-29 4.81 µM | SF-268 4.07 µM | K562 3.92 µM | SN12C 2.2 µM | OVCAR-4 5.42 µM | U-251 3.39 µM | UO-31 2.54 µM | M14 2.38 µM | SK-MEL-28 8.18 µM | MDA-MB-231 2.3 µM | SF-295 5.24 µM | SK-MEL-5 3.06 µM | T47D 31.7 µM | NCI-H23 1.45 µM | A498 21.4 µM | COLO 205 6.1 µM | SK-OV-3 13.1 µM | A549 3.95 µM | ACHN 4.26 µM | MDA-N 3.28 µM | DU-145 3.92 µM | RXF 393 4.91 µM | BT-549 3.37 µM | UACC-257 11 µM | Malme-3M 1.95 µM | 786-0 1.69 µM | CAKI-1 3.39 µM | NCI-H522 1.59 µM | PC-3 4.21 µM | HOP-62 3.72 µM | KM12 4.76 µM | SR 2.3 µM | HL-60 1.12 µM | UACC-62 1.28 µM | NCI-H460 5.6 µM | SNB-75 9.71 µM | MCF7 2.14 µM | MOLT-4 2.98 µM | SW-620 3.3 µM | EKVX 16 µM | SNB-19 16.6 µM
1.38 µM: HCT-15
